Measurements from patent US9744236B2, “Photolabile compounds” (The Trustees of Columbia University in the City of New York, priority 2009, dated 2017).
Like-named read-outs stand apart in the source and are kept apart here.

Experiments:
[1] = Photouncaging quantum yield; assay type: physicochemical
Protocol: The photouncaging quantum yield measurements were performed with a Nd:YAG diode pumped solid state laser doubled to 473 nm with a constant power of 6.3 mW. The light was collimated and sent through an optical path of 1 cm into a fluorescence glass cuvette, with stirring. Total irradiation energy was measured using a Coherent Fieldmaster FM light meter with a visible light photodiode model SR45.
The quantum yield of rhodamine photorelease was calculated after the analysis of fluorescence emission data during photouncaging at 473 nm. A complete spectrum was obtained once per second. Absorption of light by the complex [Ru(bpy)2(RhodB-MAPN)Cl]^+ yields the aquo complex [Ru(bpy)2(H2O)Cl]^+ and free RhodB-MAPN. In each irradiation period the amount of aquo complex and free RhodB-MAPN generated is given by the following: δn=δtIφPU(1−10^−AbsT)AbsR/AbsT where δt is the irradiation period, I the light intensity in moles of photons per second, φPU is the quantum yield of photouncaging, AbsR is the absorbance of the photoactive species [Ru(bpy)2(RhodB-MAPN)Cl]^+ at 473 nm and AbsT is the total absorbance of the irradiated solution. By means of finite element calculation of the former equation a photouncaging quantum yield of φPU=0.12 at 25° C. was calculated. This value is in good agreement with the reported quantum yields for similar complexes. […]

[2] = Photorelease of 4AP from [Ru(bpy)2(4AP)2]Cl2 under visible light (UV-vis, NMR); assay type: physicochemical
Protocol: (§1) UV-vis spectra in water were obtained with an HP 8453 diode array spectrophotometer. RMN ^1H spectra were obtained using a Bruker 500 MHz equipment. CV measurements were performed with a PAR 273A potentiostat. Irradiation was effected by means of a pulsed Xe lamp, (pulse energy ˜0.5 J), with a low-pass filter at 480 nm. Irradiation using a 473 nm DPSS laser gave similar results.
(§2) Several ruthenium polypyridyl complexes present this behavior. (D. V. Pinnick et al., 1984, Inorg. Chem., 23:1440-1445).
Although at pH 7 the spectrum of the irradiated complex is very similar to that of the original complex, a diminished shoulder at 470 nm becomes evident. To determine the nature of the photoreaction, NMR spectra were taken before and after irradiation with visible light. […] After irradiation, this signal decreased, and two new signals appeared at lower fields: one corresponding to the free ligand (m3), and the other corresponding to the aquo-4AP complex (m2), indicating photorelease of the 4AP. These two latter signals integrated for 0.30 and 0.27 of the initial signal, which corresponds to a photoreaction of 60%.
(§3) (See, e.g., E. S. Dodsworth et al., 1986, Chem. Phys. Lett., 124:152-158). The photoactivity of these compounds has been explained in terms of a reaction pathway that involves the transition between the MLCT state to a lower-energy d-d state, which promotes ligand release. There is a direct correspondence between the energy of the MLCT transition and the quantum yield of the photoreaction. For [Ru(bpy)2(4AP)CH3CN]^2+, the photoreaction yield is about φPR=0.4. Since [Ru(bpy)2(4AP)2]Cl2 presents a red-shifted band, a lower photoreaction yield is expected. An estimate based on early experiments leads to an estimate of φPR≅0.02 at 473 nm.

[3] = Photorelease of TzGly from [Ru(bpy)2(TzGly)(py)]Cl2; assay type: physicochemical; settings: 470 nm
[4] = Dark stability and recombination followed by UV-vis spectra; assay type: physicochemical
Excerpt: The photoproducts after exposure to light were Ru(bpy)2(4AP)(H2O) and free 4AP.
as §2

[5] = Cyclic voltammetry, redox potential; assay type: physicochemical; settings: in water, versus Ag/AgCl
Protocol: as §1, §3
Its aqueous solutions present a strong metal to ligand charge-transfer band (MLCT band) at 450 nm, characteristic of this family of Ru polypyridines.

[6] = test system: Retzius (Rz) cells in the ganglion; assay: Intracellular voltage recording of leech ganglion neuron with light flash uncaging; settings: for neuron spiking activity on addition, before light: ˜100 μM in saline, no flash; for neuron spiking activity after light flash: pulsed Xe lamp flash
Protocol: Hirudo medicinalis has a central nerve cord with several ganglia, each one containing about 400 neurons arranged in a known pattern. (W.-R. Schlue et al., 1980, J. Exp. Biol., 82:23-34). An entire ganglion was mounted on a dish. The transmembrane potential for a single cell (a neuron) in the ganglion was recorded by inserting inside the neuron a glass micropipet with a micrometer-sized end, filled with saturated aqueous KCl that acts as a luggin bridge for an Ag/AgCl electrode. Another Ag/AgCl electrode was used as a reference. The signal was taken with an AM-System 1600 amplifier, and the entire setup was covered with a Faraday cage. A 12 bit A/D acquisition card was used to digitize the data using an ad-hoc program written in QuickBasic.
Low Ca^2+-high Mg^2+ saline solution (NaCl, 102 mM; KCl, 4 mM; CaCl2: 1 mM; and MgCl2: 10 mM; Tris base, pH 5.4 adjusted to 7.4) was perfused through the dish. […] A pulsed Xe lamp located under the dish was used to irradiate the solution. UV light was removed using a band-pass filter at 500 nm.
After impaling the cell with an electrode, many experiments were performed on the same cell to ensure reproducibility. […] 300 seconds later, at 5500 s, a light flash was directed to the ganglion.

mouse cortical neuron = assay: Whole-cell patch-clamp of cortical neuron, perfusion; assay type: cell-based; settings: 1 μM via perfusion
Excerpt: FIGS. 13A and 13B: FIG. 13A depicts the structure of TzGly. […] The measurement results were obtained by the whole-cell patch-clamp method, as known and used in the art.

[7] = Photolysis of [Ru(bpy)2(PMe3)(MTG)]+2, UV-Vis; assay type: physicochemical
Protocol: A total of 67 mg of [Ru(bpy)2(PMe3)Cl]PF6 were suspended in 4 ml acetone and 2 ml water, and were heated and stirred at 80° C. until dissolution. Evaporated acetone was gradually replaced with water or acetone to keep total volume constant but avoiding precipitation. All the following was performed under dim red light. 100 mg of D(+)methylthiogalactose were added and the mixture was kept at 80° C. for 5 hours: The reaction progress was followed by UV-Vis spectrophotometry until the aquo complex was no longer detectable. The solution was cooled in ice-cold water and saturated [BPh4]^− as sodium salt was added carefully. The pale yellow precipitate was washed six times in ice cold water by resuspending the precipitate and centrifugation. NMR spectra were taken in a 500 MHz Bruker Avance II spectrometer. Photolysis of the NMR sample was performed inside the unopened NMR tube, by means of a custom-built NMR photolysis device based in 10 high current (100 mA) LEDs with emission wavelength centered at 520+/−20 nm.
The complex has a molar absorptivity coefficient of ˜3100 and a maximum absorption wavelength in the visible range at 422 nm. Photolysis quantum yield is 0.3. Successive photolysis products of the same sample are shown in black (FIG. 21).

E. coli culture = assay: Light-patterned uncaging of MTG in bacterial culture with X-Gal; assay type: cell-based; settings: 1 mM complex, 0.02% X-Gal, 20 minutes irradiation, then 37° C.
Protocol: A handheld projector 3M (110 MPro) is used to irradiate for 20 minutes an E. coli culture growing in a piece of 7 cm diameter whatman filter paper soaked in LB medium containing 1 mM [(Ru(bpy)2P(Me)3(MTG)]^+2 and 0.02% X-Gal (FIG. 24A). After image projection, the culture is left at 37° C. for until blue precipitate is noticed (˜40 minutes, FIG. 24B).

[8] = Fluorescence emission quantum yield before and after irradiation; assay type: physicochemical
Excerpt: All reagents were purchased from Sigma-Aldrich and used as received. Ru(bpy)2Cl2 was synthesized according to the literature using water as solvent (Viala, C.; Coudret, C. Inorg. Chim. Acta 2006, 359: 984-989). UV-vis spectra were taken with a HP8453 diode-array spectrometer. NMR spectra were obtained using a 500 MHz Bruker AM-500. Fluorescence emission measurements were made with a PTI Quantamaster spectrofluorometer, corrected for the instruments response function. Rhodamine B was used as fluorescence standard of emission quantum yield (φ=0.31 in aqueous solutions). Quantum yield of the complex was obtained directly from the ratio of the spectral areas, which present the same shape.
FIG. 20 depicts the emission spectra of the complex during irradiation. The maximum and the shape of the initial emission spectrum is the same as that of the free ligand RhodB-MAPN but the emission quantum yield is much lower, around pt=0.04. Quantum yields are easily calculated integrating the spectral areas. After irradiation with a 473 nm laser, RhodB-MAPN is released and the solution increases its fluorescence up to 6 fold, to φt=0.24.

With C=CCC#N.[Cl][Ru+].c1ccc(-c2ccccn2)nc1.c1ccc(-c2ccccn2)nc1 [[Ru(bpy)2(VACN)Cl]^+] the “photouncaging quantum yield φPU (VACN release)” value [1] was 0.21.
With CC#N.Nc1ccncc1.[Ru+2].c1ccc(-c2ccccn2)nc1.c1ccc(-c2ccccn2)nc1 [[Ru(bpy)2(4AP)CH3CN]^2+] the “photoreaction yield φPR” value [2] was roughly 0.4.
For [Ru(bpy)2(TzGly)(py)]Cl2, the photorelease on irradiation [3] was “photoreleased TzGly”.
In the case of Nc1ccncc1.Nc1ccncc1.[Cl-].[Cl-].[Ru+2].c1ccc(-c2ccccn2)nc1.c1ccc(-c2ccccn2)nc1 [[Ru(bpy)2(4AP)2]Cl2], the “extent of photoreaction (NMR signal integration)” value ([2]; after irradiation with visible light) is reported as 60%, the “photoreaction yield φPR” value ([2]; at 473 nm, estimate based on early experiments) is reported as roughly 0.02 and the “time without dark decomposition” value ([4]; in the dark) is reported as “more than 20 hours”. The 4AP recombination ([4]; irradiated solution, after 7 hours in the dark) was “less than 4%”, the “stability in the dark” value ([4]; water) was “stable in the dark” and the “redox potential of the couple R^III/R^II” value [5] was 0.76 V. The “toxicity on the neuron” value ([6]; during the experiments) was “Neither toxicity nor a deleterious effect was observed”, the “neuron spiking activity on addition, before light” value [6] was “the activity remained unchanged” and the “neuron spiking activity after light flash” value ([6]; ˜100 μM) was “sudden activity was recorded and it remained high after 300 s”. The “neuron spiking activity after second light pulse” value ([6]; ˜100 μM, second light pulse at 6750 s) was “even higher activity”.
With [Cl][Ru][Cl].c1ccc(-c2ccccn2)nc1.c1ccc(-c2ccccn2)nc1.c1ccc(-c2ccccn2)nc1 [Ru(bpy)3Cl2, reference compound] the “neuron spiking activity on addition, before light” value [6] was “without significant changes in activity” and the “neuron spiking activity after light flash” value ([6]; ˜100 μM) was “after a short time the activity decreased to the basal level”.
With NC(C(=O)O)c1nnn[nH]1 (racemic) [TzGly, (RS)-(tetrazol-5-yl)glycine] the effect on neuron (mouse cortical neuron) was “spiking”.
In the case of CP(C)C.CS[C@@H]1O[C@H](CO)[C@H](O)[C@H](O)[C@H]1O.[Ru+2].c1ccc(-c2ccccn2)nc1.c1ccc(-c2ccccn2)nc1 [[Ru(bpy)2(PMe3)(MTG)]^+2], the photolysis quantum yield [7] is reported as 0.3 and the “time until blue precipitate is noticed” value (E. coli culture) is reported as roughly 40 min.
For CCN(CC)c1ccc2c(-c3ccccc3C(=O)N(C)CCC#N)c3ccc(=[N+](CC)CC)cc-3oc2c1.[Cl][Ru+].c1ccc(-c2ccccn2)nc1.c1ccc(-c2ccccn2)nc1 [[Ru(bpy)2(RhodB-MAPN)Cl]^+], the increase of fluorescence ([8]; after blue light (473 nm) irradiation) was “up to 6 fold”, the emission quantum yield ([8]; after irradiation with a 473 nm laser) was 0.24 and the emission quantum yield ([8]; aqueous, before irradiation) was roughly 0.04. For the same compound, the “photouncaging quantum yield φPU” value ([1]; 473 nm, 25° C.) was 0.12.
